System: MV-4-11 cells
Assay: Gene expression microarray analysis (Affymetrix PrimeView) and GSEA
Type: cell-based, human
Set-up: RFU PODN (11730768_x_at) / Fold change /veh PODN (11730768_x_at) / RFU LINC00158 (11744669_a_at) / Fold change /veh LINC00158 (11744669_a_at) / RFU DUSP10 (11751237_a_at) / Fold change /veh DUSP10 (11751237_a_at) / RFU ID3 (11757404_x_at) / Fold change /veh ID3 (11757404_x_at) / RFU PLEKHG5 (11737974_s_at) / Fold change /veh PLEKHG5 (11737974_s_at) / RFU LRRC4B (11730491_at) / Fold change /veh LRRC4B (11730491_at) / RFU GIMAP4 (11747438_a_at) / Fold change /veh GIMAP4 (11747438_a_at) / RFU KRT8 (11758183_x_at) / Fold change /veh KRT8 (11758183_x_at) / RFU CNN1 (11734310_a_at) / Fold change /veh CNN1 (11734310_a_at) / RFU VPS37D (11726825_at) / Fold change /veh VPS37D (11726825_at) / RFU C10orf10 (11716522_x_at) / Fold change /veh C10orf10 (11716522_x_at) / RFU KIR2DL2 /// KIR2DL4 /// KIR2DL5A /// KIR2DL5B /// KIR2DS1 /// KIR2DS2 /// KIR2DS3 /// KIR2DS4 /// KIR3DL3 /// KIR3DL3 /// KIR3DS1 (11738374_at) / Fold change /veh KIR2DL2 /// KIR2DL4 /// KIR2DL5A /// KIR2DL5B /// KIR2DS1 /// KIR2DS2 /// KIR2DS3 /// KIR2DS4 /// KIR3DL3 /// KIR3DL3 /// KIR3DS1 (11738374_at) / RFU C1QL1 (11718748_at) / Fold change /veh C1QL1 (11718748_at) / RFU TMPRSS4 (11747572_a_at) / Fold change /veh TMPRSS4 (11747572_a_at) / RFU HAMP (11756126_x_at) / Fold change /veh HAMP (11756126_x_at) / RFU RNFT2 (11725882_a_at) / Fold change /veh RNFT2 (11725882_a_at) / RFU NR4A2 (11747474_a_at) / Fold change /veh NR4A2 (11747474_a_at) / RFU ABCC12 (11746883_a_at) / Fold change /veh ABCC12 (11746883_a_at) / RFU TMEM136 (11760407_x_at) / Fold change /veh TMEM136 (11760407_x_at) / RFU CLDN22 /// WWC2 (11732394_at) / Fold change /veh CLDN22 /// WWC2 (11732394_at) / RFU HLA-DPB1 (11760878_x_at) / Fold change /veh HLA-DPB1 (11760878_x_at) / RFU SPINT1 (11716480_a_at) / Fold change /veh SPINT1 (11716480_a_at) / RFU GAP43 (11754022_s_at) / Fold change /veh GAP43 (11754022_s_at) / RFU A4GNT (11735810_at) / Fold change /veh A4GNT (11735810_at) / RFU PRB3 (11715151_x_at) / Fold change /veh PRB3 (11715151_x_at) / RFU TUBB4B (11761932_at) / Fold change /veh TUBB4B (11761932_at) / RFU CAPN14 (11732068_a_at) / Fold change /veh CAPN14 (11732068_a_at) / RFU TMCC2 (11721928_a_at) / Fold change /veh TMCC2 (11721928_a_at) / RFU IRGQ (11745062_a_at) / Fold change /veh IRGQ (11745062_a_at) / RFU FAM174B (11720279_a_at) / Fold change /veh FAM174B (11720279_a_at) / RFU TMPRSS4 (11748680_a_at) / Fold change /veh TMPRSS4 (11748680_a_at) / RFU FAM212B (11763350_a_at) / Fold change /veh FAM212B (11763350_a_at) / RFU PLEKHG5 (11743358_a_at) / Fold change /veh PLEKHG5 (11743358_a_at) / RFU ZSCAN30 (11745921_a_at) / Fold change /veh ZSCAN30 (11745921_a_at) / RFU CMKLR1 (11741424_a_at) / Fold change /veh CMKLR1 (11741424_a_at) / RFU LOC101060620 /// MAPK8IP1 (11723275_at) / Fold change /veh LOC101060620 /// MAPK8IP1 (11723275_at) / RFU SPTSSB (11747773_x_at) / Fold change /veh SPTSSB (11747773_x_at) / RFU PRSS12 (11739890_at) / Fold change /veh PRSS12 (11739890_at) / RFU BIN1 (11741810_x_at) / Fold change /veh BIN1 (11741810_x_at) / RFU WNT11 (11732464_a_at) / Fold change /veh WNT11 (11732464_a_at) / RFU C10orf10 (11716521_a_at) / Fold change /veh C10orf10 (11716521_a_at) / RFU C5orf56 (11738089_at) / Fold change /veh C5orf56 (11738089_at) / RFU CYB561 (11721691_x_at) / Fold change /veh CYB561 (11721691_x_at) / RFU ANKRD19P (11752326_a_at) / Fold change /veh ANKRD19P (11752326_a_at) / RFU OR2T12 /// OR2T33 /// OR2T8 (11738714_s_at) / Fold change /veh OR2T12 /// OR2T33 /// OR2T8 (11738714_s_at) / RFU VCAN (11748164_a_at) / Fold change /veh VCAN (11748164_a_at) / RFU JSRP1 (11732532_at) / Fold change /veh JSRP1 (11732532_at) / RFU KRTAP10-11 (11738290_x_at) / Fold change /veh KRTAP10-11 (11738290_x_at) / RFU MYO3A (11730013_a_at) / Fold change /veh MYO3A (11730013_a_at) / RFU EBF3 (11725865_a_at) / Fold change /veh EBF3 (11725865_a_at) / RFU CAMK2N1 (11719241_x_at) / Fold change /veh CAMK2N1 (11719241_x_at) / RFU C5orf56 (11738088_a_at) / Fold change /veh C5orf56 (11738088_a_at) / RFU OLFML3 (11715873_a_at) / Fold change /veh OLFML3 (11715873_a_at) / RFU LOC100653217 /// NTM (11731650_a_at) / Fold change /veh LOC100653217 /// NTM (11731650_a_at) / RFU MAPK11 (11762145_a_at) / Fold change /veh MAPK11 (11762145_a_at) / RFU FIZ1 (11724087_x_at) / Fold change /veh FIZ1 (11724087_x_at) / RFU OASL (11726364_x_at) / Fold change /veh OASL (11726364_x_at) / RFU SOX15 (11748057_x_at) / Fold change /veh SOX15 (11748057_x_at) / RFU CD79A (11719716_a_at) / Fold change /veh CD79A (11719716_a_at) / RFU HIST1H1D (11736915_at) / Fold change /veh HIST1H1D (11736915_at) / RFU CASKIN2 (11723855_a_at) / Fold change /veh CASKIN2 (11723855_a_at) / RFU LOC730098 (11760151_x_at) / Fold change /veh LOC730098 (11760151_x_at) / RFU OR4N2 (11742367_at) / Fold change /veh OR4N2 (11742367_at) / RFU PRRT2 (11749266_a_at) / Fold change /veh PRRT2 (11749266_a_at) / RFU SNX32 (11753110_a_at) / Fold change /veh SNX32 (11753110_a_at) / RFU CDHR5 (11726645_a_at) / Fold change /veh CDHR5 (11726645_a_at) / RFU RCAN1 (11760418_a_at) / Fold change /veh RCAN1 (11760418_a_at) / RFU FAM167A (11723789_a_at) / Fold change /veh FAM167A (11723789_a_at) / RFU FAM26E (11764081_at) / Fold change /veh FAM26E (11764081_at) / RFU ISYNA1 (11749810_s_at) / Fold change /veh ISYNA1 (11749810_s_at) / RFU ACY1 (11761880_at) / Fold change /veh ACY1 (11761880_at) / RFU 11764098_at / Fold change /veh 11764098_at / RFU SAMD14 (11745864_x_at) / Fold change /veh SAMD14 (11745864_x_at) / RFU NPB (11741838_a_at) / Fold change /veh NPB (11741838_a_at) / RFU TMPRSS6 (11731388_a_at) / Fold change /veh TMPRSS6 (11731388_a_at) / RFU KRTAP10-2 (11738614_at) / Fold change /veh KRTAP10-2 (11738614_at) / RFU ARHGAP8 /// PRR5-ARHGAP8 (11727945_x_at) / Fold change /veh ARHGAP8 /// PRR5-ARHGAP8 (11727945_x_at) / RFU KRTAP5-7 /// NADSYN1 (11734609_at) / Fold change /veh KRTAP5-7 /// NADSYN1 (11734609_at) / RFU RASL12 (11751679_a_at) / Fold change /veh RASL12 (11751679_a_at) / RFU CDKN2B (11736163_a_at) / Fold change /veh CDKN2B (11736163_a_at) / RFU PRF1 (11729649_at) / Fold change /veh PRF1 (11729649_at) / RFU, ZNF638 /// ZNF638-IT1 / Fold change vs veh, ZNF638 /// ZNF638-IT1 / RFU, PANK3 / Fold change vs veh, PANK3 / RFU, SH3YL1 / Fold change vs veh, SH3YL1 / RFU, ZEB2 / Fold change vs veh, ZEB2 / RFU, NRIP1 / Fold change vs veh, NRIP1 / RFU, PTTG1IP / Fold change vs veh, PTTG1IP / RFU, CAPN2 / Fold change vs veh, CAPN2 / RFU, MED14 / Fold change vs veh, MED14 / RFU, SNORA58 / Fold change vs veh, SNORA58 / RFU, C1orf63 / Fold change vs veh, C1orf63 / RFU, LRRFIP1 / Fold change vs veh, LRRFIP1 / RFU, NDUFAF7 / Fold change vs veh, NDUFAF7 / RFU, SLC12A2 / Fold change vs veh, SLC12A2 / RFU, IBTK / Fold change vs veh, IBTK / RFU, ESF1 / Fold change vs veh, ESF1 / Fold change vs veh, TMEM50B / RFU, TAOK1 / Fold change vs veh, TAOK1 / RFU, ACBD3 / Fold change vs veh, ACBD3 / RFU, TMA16 / Fold change vs veh, TMA16 / RFU, RWDD3 / Fold change vs veh, RWDD3 / RFU, BCAT1 / Fold change vs veh, BCAT1 / RFU, EDEM3 / Fold change vs veh, EDEM3 / RFU, TMEM33 / Fold change vs veh, TMEM33 / RFU, WDR75 / Fold change vs veh, WDR75 / RFU, AHCTF1 / Fold change vs veh, AHCTF1 / RFU, TFRC / Fold change vs veh, TFRC / RFU, ZDHHC17 / Fold change vs veh, ZDHHC17 / RFU, NOM1 / Fold change vs veh, NOM1 / RFU, ARL8B / Fold change vs veh, ARL8B / RFU, ZBTB11 / Fold change vs veh, ZBTB11 / RFU, TAMM41 / Fold change vs veh, TAMM41 / RFU, KIAA1704 /// LOC100996395 / Fold change vs veh, KIAA1704 /// LOC100996395 / RFU, ING1 / Fold change vs veh, ING1 / RFU, TRMT61B / Fold change vs veh, TRMT61B / RFU, FUBP3 / Fold change vs veh, FUBP3 / RFU, TP53 / Fold change vs veh, TP53 / RFU, TNKS2 / Fold change vs veh, TNKS2 / RFU, ZFP14 / Fold change vs veh, ZFP14 / RFU, ACTR2 / Fold change vs veh, ACTR2 / RFU, PPP3R1 / Fold change vs veh, PPP3R1 / RFU, PIK3R1 / Fold change vs veh, PIK3R1 / RFU, HNRNPA1 / Fold change vs veh, HNRNPA1 / RFU, RNF170 / Fold change vs veh, RNF170 / RFU, ZNF28 / Fold change vs veh, ZNF28 / RFU, RNGTT / Fold change vs veh, RNGTT / RFU, OGT / Fold change vs veh, OGT / RFU, BRD1 / Fold change vs veh, BRD1 / RFU, MARS / Fold change vs veh, MARS / RFU, ZNF655 / Fold change vs veh, ZNF655 / RFU, FAHD1 / Fold change vs veh, FAHD1 / RFU, BDP1 / Fold change vs veh, BDP1 / RFU, LRRCC1 / Fold change vs veh, LRRCC1 / RFU, ARID1A / Fold change vs veh, ARID1A / RFU, ZNF146 / Fold change vs veh, ZNF146 / RFU, ZNF330 / Fold change vs veh, ZNF330 / RFU, GPN3 / Fold change vs veh, GPN3 / RFU, C9orf123 / Fold change vs veh, C9orf123 / RFU, N4BP2L2 / Fold change vs veh, N4BP2L2 / RFU, ARFIP1 / Fold change vs veh, ARFIP1 / RFU, FAM179B / Fold change vs veh, FAM179B / RFU, BCL10 / Fold change vs veh, BCL10 / RFU, UHRF1BP1L / Fold change vs veh, UHRF1BP1L / RFU, BET1 / Fold change vs veh, BET1 / RFU, CNOT2 / Fold change vs veh, CNOT2 / RFU, ZNF268 / Fold change vs veh, ZNF268 / Fold change vs veh, ZNF507 / RFU, DGCR2 / Fold change vs veh, DGCR2 / RFU, WDSUB1 / Fold change vs veh, WDSUB1 / Fold change vs veh, HSP90B1 /// MIR3652 / RFU, ADSS / Fold change vs veh, ADSS / RFU, GK / Fold change vs veh, GK / RFU, ZNF148 / Fold change vs veh, ZNF148 / RFU, TAF9 / Fold change vs veh, TAF9 / RFU, SLC1A5 / Fold change vs veh, SLC1A5 / RFU, SLMO2 / Fold change vs veh, SLMO2 / RFU, ABCC4 / Fold change vs veh, ABCC4 / RFU, LOC101060439 /// RAP1B / Fold change vs veh, LOC101060439 /// RAP1B / RFU, RFX7 / Fold change vs veh, RFX7 / RFU, GTPBP10 / Fold change vs veh, GTPBP10 / RFU, CNEP1R1 / Fold change vs veh, CNEP1R1 / RFU, BIVM-ERCC5 /// ERCC5 / Fold change vs veh, BIVM-ERCC5 /// ERCC5 / RFU, ILF3 / Fold change vs veh, ILF3 / RFU 11762660_at / Fold change /veh 11762660_at / RFU VCAN (11757783_s_at) / Fold change /veh VCAN (11757783_s_at) / RFU DDX43 (11728927_at) / Fold change /veh DDX43 (11728927_at) / RFU KRT8 (11758188_x_at) / Fold change /veh KRT8 (11758188_x_at) / RFU NKD1 (11759106_at) / Fold change /veh NKD1 (11759106_at) / RFU SRD5A1 (11742802_a_at) / Fold change /veh SRD5A1 (11742802_a_at) / RFU TPSAB1 /// TPSB2 (11721975_s_at) / Fold change /veh TPSAB1 /// TPSB2 (11721975_s_at) / RFU GSTM3 (11746129_a_at) / Fold change /veh GSTM3 (11746129_a_at) / RFU IL23R (11737362_x_at) / Fold change /veh IL23R (11737362_x_at) / RFU TMEM51 (11727254_a_at) / Fold change /veh TMEM51 (11727254_a_at) / RFU PIWIL2 (11732686_x_at) / Fold change /veh PIWIL2 (11732686_x_at) / RFU ORM1 (11744905_x_at) / Fold change /veh ORM1 (11744905_x_at) / RFU CCDC152 (11743942_at) / Fold change /veh CCDC152 (11743942_at) / RFU ECM1 (11717891_a_at) / Fold change /veh ECM1 (11717891_a_at) / RFU IL23R (11748794_a_at) / Fold change /veh IL23R (11748794_a_at) / RFU TNFAIP8L3 (11732012_x_at) / Fold change /veh TNFAIP8L3 (11732012_x_at) / RFU MBOAT4 (11741988_at) / Fold change /veh MBOAT4 (11741988_at) / RFU 11764193_at / Fold change /veh 11764193_at / RFU TMEM53 (11763286_at) / Fold change /veh TMEM53 (11763286_at) / RFU MAGEB2 (11727129_at) / Fold change /veh MAGEB2 (11727129_at) / RFU TMEM200A (11744735_a_at) / Fold change /veh TMEM200A (11744735_a_at) / RFU CCDC152 (11751479_a_at) / Fold change /veh CCDC152 (11751479_a_at) / RFU FAM211A (11726209_a_at) / Fold change /veh FAM211A (11726209_a_at) / RFU RGS16 (11746705_a_at) / Fold change /veh RGS16 (11746705_a_at) / RFU VCAN (11755009_s_at) / Fold change /veh VCAN (11755009_s_at) / RFU RHOB (11743442_s_at) / Fold change /veh RHOB (11743442_s_at) / RFU RGS16 (11720943_a_at) / Fold change /veh RGS16 (11720943_a_at) / RFU RGS16 (11720944_at) / Fold change /veh RGS16 (11720944_at) / RFU, VPS4B / Fold change vs veh, VPS4B / RFU, CREB1 / Fold change vs veh, CREB1 / RFU, DNAJC13 / Fold change vs veh, DNAJC13 / RFU, GNAQ / Fold change vs veh, GNAQ / RFU, CDK5R1 / Fold change vs veh, CDK5R1 / RFU, ZRANB3 / Fold change vs veh, ZRANB3 / RFU, CUL4A / Fold change vs veh, CUL4A / RFU, CCNY / Fold change vs veh, CCNY / RFU, UFL1 / Fold change vs veh, UFL1 / RFU, COG3 / Fold change vs veh, COG3 / RFU, DIAPH2 / Fold change vs veh, DIAPH2 / RFU, SKA2 / Fold change vs veh, SKA2 / RFU, AFF3 / Fold change vs veh, AFF3 / RFU, LMF1 / Fold change vs veh, LMF1 / RFU, IPO11 / Fold change vs veh, IPO11 / RFU, DFFB / Fold change vs veh, DFFB / RFU, FOXP1 / Fold change vs veh, FOXP1 / RFU, CARD8 / Fold change vs veh, CARD8 / RFU, STRN3 / Fold change vs veh, STRN3 / RFU, ADK / Fold change vs veh, ADK / RFU, RASSF2 / Fold change vs veh, RASSF2 / RFU, WIPF1 / Fold change vs veh, WIPF1 / RFU, LARP1B / Fold change vs veh, LARP1B / RFU, RASA1 / Fold change vs veh, RASA1 / RFU, RB1 / Fold change vs veh, RB1 / RFU, PPFIA1 / Fold change vs veh, PPFIA1 / RFU, MAT2A / Fold change vs veh, MAT2A / RFU, CCT5 / Fold change vs veh, CCT5 / RFU, WDR92 / Fold change vs veh, WDR92 / RFU, CUX1 / Fold change vs veh, CUX1 / RFU, TTC7A / Fold change vs veh, TTC7A / RFU, TMEM135 / Fold change vs veh, TMEM135 / RFU, DEPTOR / Fold change vs veh, DEPTOR / RFU, CPM / Fold change vs veh, CPM / RFU, DNAJB6 / Fold change vs veh, DNAJB6 / RFU, CACNA2D3 / Fold change vs veh, CACNA2D3 / RFU, DTX4 / Fold change vs veh, DTX4 / RFU, TFCP2 / Fold change vs veh, TFCP2 / RFU, GMCL1 /// GMCL1P1 / Fold change vs veh, GMCL1 /// GMCL1P1 / RFU, AEBP2 / Fold change vs veh, AEBP2 / RFU, SNHG1 /// SNORD22 /// SNORD25 /// SNORD26 /// SNORD27 /// SNORD28 /// SNORD29 /// SNORD31 / Fold change vs veh, SNHG1 /// SNORD22 /// SNORD25 /// SNORD26 /// SNORD27 /// SNORD28 /// SNORD29 /// SNORD31 / Fold change (Aza/veh), C12orf56 (ProbeSet 11735607_a_at) / Fold change (ACY-1035/veh), C12orf56 (ProbeSet 11735607_a_at) / Fold change (Aza/veh), FGFR1OP (ProbeSet 11751329_s_at) / Fold change (ACY-1035/veh), FGFR1OP (ProbeSet 11751329_s_at) / Fold change (Aza/veh), VPS36 (ProbeSet 11739960_a_at) / Fold change (ACY-1035/veh), VPS36 (ProbeSet 11739960_a_at) / RFU SYPL1 (11715823_x_at) / Fold change /veh SYPL1 (11715823_x_at) / RFU IGFBP7 (11715501_s_at) / Fold change /veh IGFBP7 (11715501_s_at) / RFU REEP3 (11722064_at) / Fold change /veh REEP3 (11722064_at) / RFU IGLL1 (11728026_x_at) / Fold change /veh IGLL1 (11728026_x_at): dose or concentration left out as unconfirmed
Details: ProbeSet 11759095_at; LIST D

Nc1ccc(-c2cccs2)cc1NC(=O)c1ccc2c(c1)cc(C1CC1)n2CCN1CCOCC1 [ACY-1035]
RFU, GNAQ: 901.39 RFU

Source: article PMC5218480 (PLoS ONE, 2017)
